By IC50 is commonly meant the concentration at which inhibition is half-maximal. The term bioavailability denotes dose-corrected exposure relative to a reference, in per cent. The term Vd denotes a proportionality between amount in the body and measured concentration, not a real space. A higher Vd goes with wide distribution into tissue. The clearance is a measure of how efficiently the substance is removed, as volume per time. A higher clearance goes with a high capacity for elimination. As a reminder, the AUC is concentration integrated over time. Lower therefore signals low exposure. As usually defined, the Cmax is the highest concentration seen after dosing.

From patent US20260355191A1, “PAN-RAS INHIBITOR COMPOUND” (ADLAI NORTYE BIOPHARMA CO., LTD., priority 2024, published 2026) come the findings set out here.

One data set relates to HCT116. Briefly: In vitro cell proliferation inhibition assay (CellTiter-Glo), HCT116. The class given is cell-based. To be noted: HCT116, KRAS (p.G13D), 72 h; read-out: IC50, antiproliferative activity. As for the experimental part: (§1) Due to the diversity of RAS mutations, and in order to evaluate the activity of the compounds in different RAS mutant cell lines, we selected cell lines with KRAS^G12D, KRAS^G12V, KRAS^G12c, NRAS^q61L, KRAS^G13D, KRAS^G12R, and KRAS^WT mutations (see the table below for in vitro activity evaluation and screening of the compounds.
(§2) According to the doubling time of different cell lines, different numbers of cells (1000-5000 cells/well) were seeded into 96-well plates containing 180 μL of the corresponding culture medium, and incubated overnight in a cell incubator at 37 °C with 5% C02. On the following day, the test compounds were pre-diluted in the culture medium in a 3-fold serial dilution series, with the highest concentration being […], resulting in 10 concentration gradients in total. Subsequently, 20 μL of culture medium containing the compounds at different concentrations was added to the cells in the 96-well plates, ensuring a final compound concentration of up to 10 μM, with 10 concentrations in 3-fold dilution. After co-incubation of the cells with the compounds for 72 h, the 96-well plates were removed from the incubator and equilibrated at room temperature for 30 min. Then, 25 μL of CellTiter-Glo® Reagent was added to each well and mixed thoroughly, followed by incubation at room temperature for 10 min. Subsequently, 100 μL of the samples was transferred to white 96-well plates (OptiPlate™-96, PerkinElmer), and […] signal values were read using a multifunctional microplate reader (SpectraMax i3x, Molecular Devices). The signal values were then normalized, and curve fitting was performed using a four-parameter logistic regression equation to calculate the half maximal inhibitory concentration (IC50) of the compounds against the cell lines.

The test system of a further data set is PSN1. Briefly: In vitro cell proliferation inhibition assay (CellTiter-Glo), PSN1. It counts as cell-based. The settings on record: PSN1, KRAS (p.G12R), 72 h; read-out: IC50, antiproliferative activity. As for the experimental part: as §1, §2
(In ATP-based viability assays light output follows the ATP content of the culture.)

The test system of a further data set is HepG2. Briefly: In vitro cell proliferation inhibition assay (CellTiter-Glo), HepG2. To be noted: HepG2, NRAS (p.Q61L), 72 h; read-out: IC50, antiproliferative activity. It counts as cell-based. As for the experimental part:
as §1, §2

A further data set deals with SW480. Briefly: In vitro cell proliferation inhibition assay (CellTiter-Glo), SW480. The class given is cell-based. To be noted: SW480, KRAS (p.G12V), 72 h; read-out: IC50, antiproliferative activity. As for the experimental part: as §1, §2
Data set [1] in a line: Pharmacokinetic study in mice. It counts as in vivo. To be noted: mouse, male CD-1 mice; for bioavailability: blood; for bioavailability / AUC / Cmax: po, p.o. 2 mpk; for bioavailability / Vd / clearance: i.v. 1 mpk; for Vd / clearance: iv, 1 mg/kg; for Vd / clearance / AUC / Cmax: whole blood; for AUC / Cmax: 2 mg/kg. As for the experimental part: To evaluate the pharmacokinetic behavior of the compounds of the disclosure in male CD-1 mice, the test compounds were dissolved in a solvent (5% DMSO/10% solutol/85% water). Twelve male CD-1 mice were divided into two groups, with six animals in each group. Group 1 received a single intravenous bolus (i.v.) administration of the compound, and Group 2 received a single oral (p.o.) administration of the compound. Whole blood samples were collected at 0.083 h (intravenous group only), 0.25, 0.5, 1, 2, 4, 8, and 24 hours after dosing. The concentration of the test compound in whole blood samples was determined using the LC-MS/MS method.

In the next data set the test system is AsPC-1. Nature of the data set: In vitro cell proliferation inhibition assay (CellTiter-Glo), AsPC-1. The class given is cell-based. To be noted: AsPC-1, KRAS (p.G12D), 72 h; read-out: IC50, antiproliferative activity. As for the experimental part: as §1, §2
For a further data set, the system named is H358. Briefly: In vitro cell proliferation inhibition assay (CellTiter-Glo), H358. The settings on record: H358, KRAS (p.G12C), 72 h; read-out: IC50, antiproliferative activity. It counts as cell-based. As for the experimental part: as §1, §2
In another data set the test system is MV411. Briefly: In vitro cell proliferation inhibition assay (CellTiter-Glo), MV411. The class given is cell-based. The settings on record: MV411, KRAS wild type, 72 h; read-out: IC50, antiproliferative activity. As for the experimental part:
as §2

For `CCn1c(-c2cc(-c3nnc(C4CCN(C5COC5)CC4)o3)cnc2[C@H](C)OC)c2c3cc(ccc31)-c1csc(n1)C[C@H](NC(=O)[C@H]1[C@H](C)[C@@H]1C)C(=O)N1CCC[C@H](N1)C(=O)OCC(C)(C)C2` (atropisomer, axis not shown) [Compound 2, (1r,2R,3S)—N-((6^3S,4S,Z)-1^1-ethyl-1^2-(2-((S)-1-methoxyethyl)-5-(5-(1-(oxetan-3-yl)piperidin-4-yl)-1,3,4-oxadiazol-2-yl)pyridin-3-yl)-10,10-dimethyl-5,7-dioxo-6^1,6^2,6^3,6^4,6^5,6^6-hexahydro-1^1H-8-oxa-2(4,2)-thiazola-1(5,3)-indola-6(1,3)-pyridazinacycloundecaphane-4-yl)-2,3-dimethylcyclopropane-1-carboxamide], the IC50 was found to be 0.07 nM in the data set with HCT116; 0.01 nM in the data set with PSN1; 0.01 nM in the data set with HepG2; 0.09 nM with SW480; 0.06 nM in the data set with AsPC-1; 0.002 nM in the data set on H358. For the same compound, in the data set on MV411, the IC50 came to 0.16 nM. The compound also showed a bioavailability in data set [1] of 24.5%. For the same compound, the Vd in data set [1] stood at 1.95 L/kg. The compound also displayed a clearance in data set [1] of 4.6 mL/min/kg. The compound also came in with an exposure (AUC) in data set [1] of 1790 ng·h/mL. The concentration in data set [1] peaked (Cmax) at 167 ng/mL.

`CO[C@@H](C)c1ncc(-c2nnc(C3CCN(C4COC4)CC3)o2)cc1-c1c2c3cc(ccc3n1CC(F)(F)F)-c1csc(n1)C[C@H](NC(=O)C1C[C@@H]1C)C(=O)N1N[C@H](C(=O)OCC(C)(C)C2)C2CC1C2` (stereo partly drawn) [Compound 9]: the IC50 amounted to 0.23 nM in the data set on HCT116; 0.01 nM with PSN1; 0.16 nM in the data set with HepG2; 0.06 nM in the data set with SW480; 0.09 nM in the data set with AsPC-1; 0.041 nM in the data set with H358. The IC50 with MV411 is 0.76 nM. Besides, in data set [1], the bioavailability is 63.3%. For the same compound, in data set [1], the Vd was determined as 2.87 L/kg. The same compound had a clearance in data set [1] of 3.7 mL/min/kg. Moreover, in data set [1], the AUC worked out at 5740 ng·h/mL. Also, in data set [1], the peak level (Cmax) was 248 ng/mL.
